Tests used:
[1] = Single dose PK study in mice (ELISA); type: in vivo, Balb/cJRj mice; settings: single IV dose
Method: Balb/cJRj mice received a single IV injection of 1 μg (0.040 mg/kg), 3 μg (˜0.10 mg/kg), 10 μg (˜0.40 mg/kg) or 30 μg (˜1.20 mg/kg) RB_RMAB01 drug product and […] IMAB362 reference protein. Plasma was sampled 6, 24, 96, 168, 264, 336 and 504 hours post administration. RiboMab01 concentrations in plasma measured via ELISA are shown. Error bars are standard errors of the mean (n=3).

[2] = Repetitive dose PK study in mice (ELISA); type: in vivo, Balb/cJRj mice; settings: five weekly IV doses
Method: Balb/cJRj mice received IV injections of 1 μg (˜0.04 mg/kg), 3 μg (˜0.10 mg/kg), 10 μg (˜0.40 mg/kg) or 30 μg (˜1.20 mg/kg) RB_RMAB01 and 80 μg (˜3.20 mg/kg) IMAB362 reference protein at test days 1, 8, 15, 21 and 29. Plasma was sampled 24 hours pre- and 24 hours post-dosing. RiboMab01 concentrations in plasma measured via ELISA are shown. Dotted lines indicate injections. Error bars are standard errors of the mean (n=3).

[3] = system: CLDN-18.2+ NUG-C4 transfectants; assay: Ex vivo ADCC assay with serum of dosed non-human primates; type: cell-based; settings: for ADCC target cell lysis: serum 24 hours and 168 hours post IV dosing of 0.1, 0.4, 1.6 mg/kg
Method: Non-Human Primates (NHP) received three repetitive doses of 0.1, 0.4 or 1.6 mg/kg RB_RMAB01 once weekly. RiboMab01-containing serum of all monkeys sampled 24 hours (black bars) and 168 hours (white bars) post 1st injection was directed to luciferase-based ex vivo ADCC assays. […] Human PBMCs from two different healthy donors (24 h, donor 1, 168 h, donor 2) served as effector cells. (Panel A) RiboMab01-mediated ADCC of NUG-C4 cells after 48 hours incubation is shown. (Panel B) Unspecific lysis on target-negative MDA-MB-231 cells is shown. Error bars are standard error of the mean (n=3). (Panel C) Serum of NHP No. 14 (1.6 mg/kg RB_RMAB01, RiboMab01 serum concentration 232 μg/mL) collected 48 hours after the 3rd dosing was used for a luciferase-based ex vivo ADCC assays. […] Human PBMCs of a healthy donor served as effector cells. […] Incubation time was 48 hours. Error bars are standard errors of the mean (n=3).
ADCC assays were performed as described in Example 2. […] Purified IMAB362 served as assay reference protein.

CLDN-18.2 = target: T1, CLDN-18.2 (Homo sapiens, UniProt P56856); assay: Flow cytometric binding assay on CLDN-18.2+ HEK293 transfectants; settings: CHO-K1 supernatant on CLDN-18.2+ HEK293 transfectants
T1 construct: expressed in transfected cells; host or cells: HEK293

[4] = system: primary human hepatocytes; assay: Expression and assembly of RiboMab after lipofection of primary human hepatocytes (ELISA, Western Blot); type: cell-based; settings: 48 hours post lipofection
Method: (Left) ELISA analyses of RiboMab01 concentrations 48 hours post transfection. (Right) Western Blot analysis of cell culture supernatant from indicated lipofections. Recombinant purified IMAB362 served as reference for Western Blot analysis. Analysis was performed under non-reducing conditions and with HRP-conjugated anti-human antibodies. A mixture of Fcγ-fragment specific and anti-kappa light chain specific antibodies was used for detection of full length IgG, free heavy (HC) and free light chains (LC). Supernatant of untransfected primary human hepatocytes served as mock control. […] RiboMab01 concentration determined via ELISA 48 hours post transfection are shown. Error bars are standard errors of the mean (n=3).
Assembly of full IgG after RNA transfection of hepatocytes.

CHO-K1 cells = assay: Expression and assembly of RiboMab after lipofection of CHO-K1 cells (ELISA); type: cell-based, Chinese hamster; settings: 48 hours post lipofection
[5] = system: CLDN-18.2+ NUG-C4 transfectants; assay: Ex vivo ADCC assay with plasma of dosed mice; type: cell-based, human; settings: 1% plasma sampled 24 hours post 5th IV dosing of 1-30 μg RNA composition, 48 hours, E:T 30:1
Method: Plasma of mice dosed with five repetitive injections of either 1 μg (˜0.04 mg/kg), 3 μg (˜0.10 mg/kg), 10 μg (˜0.40 mg/kg) and 30 μg (˜1.20 mg/kg) RB_RMAB01 or 80 μg (˜3.20 mg/kg) of IMAB362 was sampled 24 hours post 5th injection and directed to luciferase-based ex vivo ADCC assays. Plasma of untreated mice spiked with IMAB362 served as assay reference. […] (Panel A) RiboMab01 mediated ADCC of NUG-C4 cells after 48 hours incubation with 1% of plasma is shown. […] Error bars are standard errors of the mean (n=3).
Plasma of untreated mice spiked with IMAB362 served as assay reference.

EC50 ([3]; serum of monkey No. 14 (1.6 mg/kg) 48 hours after 3rd dosing or recombinant reference protein, 48 hours incubation): 0.066 nM
ADCC EC50 ([3]; serum of monkey No. 14, 48 hours after 3rd injection, 10-point dilution row): 0.01 µg/mL
binding to CLDN-18.2 polypeptide (CLDN-18.2): bound preferentially
binding to CLDN-18.2 polypeptide (CLDN-18.2; listed as RiboMab01): binds target specific to CLDN-18.2
Substance: CLDN-18.2-targeting RiboMab: CLDN-18.2-targeting IgG antibody (IMAB362 delivered as ribonucleic acid) expressed from mRNAs encoding heavy and light chain
time RiboMab detectable post administration [1]: up to 504 hours
time RiboMab detectable post administration ([1]; listed as CLDN-18.2-targeting antibody agent): up to 504 hours post dosing.
peak plasma concentration of RiboMab ([2]; 30 μg, 24 hours post-dosing): ≤ 1000 µg/mL
RiboMab levels on weekly administration [2]: Sustained CLDN-18.2-targeting RiboMab
ADCC target cell lysis [3]: high and dose-dependent target cell lysis
ADCC target cell lysis ([3]; listed as RiboMab01): dose-dependent ADCC
expression and assembly of full IgG in cell supernatant [4]: Fully assembled
expression and assembly of full IgG in cell supernatant ([4]; listed as RiboMab01): expressed
expression and assembly of full IgG in cell supernatant (CHO-K1 cells): Fully assembled
expression and assembly of full IgG in cell supernatant (CHO-K1 cells; listed as RiboMab01): expressed
ADCC target cell lysis [5]: high and dose-dependent target cell lysis
ADCC target cell lysis ([5]; listed as RiboMab01): specific tumor cell lysis
